Measurements as given in publication PMC8113459, “Selective inhibition of cullin 3 neddylation through covalent targeting DCN1 protects mice from acetaminophen-induced liver toxicity” (Nature Communications, 2021).
Values joined by “and” are separate entries in the source; they are usually repeats but may differ in a detail not shown here. Identical values can stand only once.

Legend:
Assay type in all cases: cell-based, human
[1] = Cell viability assay (WST-8), KYSE70; settings: human, KYSE70 cells, replicates, read-out: cell viability relative to control
Procedure: (§1) Cell viability assay was performed as previously described. The effect of DCN1 inhibitors on cell growth was evaluated by a WST-8 [2-(2-methoxy-4-nitrophenyl)-3-(4-nitrophenyl)-5-(2,4-disulfophenyl)-2H-tetrazolium, monosodium salt assay (Dojindo Molecular Technologies, Inc). Cells (2000–3000 cells in each well) were seeded in 96-well tissue culture plates in medium (100 μL) and treated with serial dilution of DCN1 inhibitors for 3 days. At the end of incubation, WST-8 dye (20 μL) was added to each well and incubated for 1–3 h, then the absorbance was measured in a microplate reader (Molecular Devices) at 450 nm. Cell growth inhibition was evaluated as the ratio of the absorbance of the sample to that of the control. The values were inserted into Prism software, and the curves and the EC50 values were produced by Prism software.

KYSE70 cells = assay: Cell viability assay (WST-8), KYSE70; settings: for cell viability relative to control: replicates
Procedure: as §1

four cancer cell lines = assay: Cell viability assay (WST-8), four cancer cell lines; settings: concentrations up to 1000 nM, 72 h
Procedure: as §1

[2] = Cell viability assay (WST-8), HCT116; settings: human, HCT116 cells, replicates, read-out: cell viability relative to control
Procedure: as §1

HCT116 cells = assay: Cell viability assay (WST-8), HCT116; settings: for cell viability relative to control: replicates
Procedure: as §1

neddylation of cullin 3 = assay: Western blot, cullin 3 neddylation in U2OS cells; settings: U2OS, Fig. 6c
Procedure: (§2) Western blotting was performed as described previously. Treated cells were lysed by RIPA buffer supplemented with protease inhibitor. The expression level of indicated proteins was examined by immunoblotting analysis and GAPDH was used as the loading control. Antibodies were purchased commercially: cullin 1 (sc-17775, 1:500 dilution) and cullin 2 (sc-166506, 1:500 dilution) from Santa Cruz Biotech (Santa Cruz, CA); cullin 4A (PA5-14542, 1:1000 dilution), cullin 4B (PA5-50647, 1:1000 dilution), and DCN3 (DCUN1D3, PA5-44000, 1:1000 dilution) from Thermo Fisher Scientific (Wayne, MI); cullin 3 (2759, 1:1000), NRF2 (12721, 1:1000 dilution), HO-1 (70081, 1:1000 dilution), and Bim (2819, 1:1000 dilution) from Cell Signaling Technology (Boston, MA); DCN1 (GWB-E3D700, 1:1000 dilution) from GenWay Biotech (San Diego, CA); and cullin 5 (A302-173A, 1:500 dilution) from Bethyl Labs (Montgomery, TX). Results are representative of two independent experiments.

[3] = Cell viability assay (WST-8), MDA-MB-231; settings: human, MDA-MB-231 cells, replicates, read-out: cell viability relative to control
Procedure: as §1

MDA-MB-231 cells = assay: Cell viability assay (WST-8), MDA-MB-231; settings: for cell viability relative to control: replicates
Procedure: as §1

[4] = Cell viability assay (WST-8), U2OS; settings: human, U2OS cells, replicates, read-out: cell viability relative to control
Procedure: as §1

U2OS cells = assay: Cell viability assay (WST-8), U2OS; settings: for cell viability relative to control: replicates
Procedure: as §1

[5] = system: neddylation of cullin 1, 2, 4A, 4B, and 5; assay: Western blot, neddylation of other cullin members
Procedure: as §2

Compound: NS(=O)(=O)OC[C@@H]1C[C@@H](n2ccc3c(N[C@H]4CCc5ccccc54)ncnc32)C[C@@H]1O [MLN4924]
- viability at 72 h ([1]; conc 10, 72 h): 110%
- viability at 72 h ([1]; conc 30, 72 h): 76.4%
- viability at 72 h ([1]; conc 100, 72 h): 59.5%
- viability at 72 h ([1]; conc 300, 72 h): 41.9%
- viability at 72 h ([1]; conc 1000, 72 h): 31%
- EC50 (KYSE70 cells; Homo sapiens, KYSE-70, 72 h, cell line assigned from panel order, read-out: EC50, cell growth inhibition): 266 nM
- cell viability relative to control (KYSE70 cells; conc 3, 72 h): 119.091 and 98.7603 and 92.6446
- cell viability relative to control (KYSE70 cells; conc 10, 72 h): 116.984 and 100.041
- cell viability relative to control (KYSE70 cells; conc 30, 72 h): 82.3967
- cell viability relative to control (KYSE70 cells; conc 100, 72 h): 57.9752
- cell viability relative to control (KYSE70 cells; conc 300, 72 h): 39.3388
- cell viability relative to control (KYSE70 cells; conc 1000, 72 h): 29.2149
- cytotoxicity / cell viability (four cancer cell lines): potently inhibits cell viability
- viability at 72 h ([2]; conc 3, 72 h): 103%
- viability at 72 h ([2]; conc 10, 72 h): 118%
- viability at 72 h ([2]; conc 30, 72 h): 106%
- viability at 72 h ([2]; conc 300, 72 h): 26.5%
- viability at 72 h ([2]; conc 1000, 72 h): 27.6%
- EC50 (HCT116 cells; Homo sapiens, HCT-116, 72 h, cell line assigned from panel order, read-out: EC50, cell growth inhibition): 294 nM
- cell viability relative to control (HCT116 cells; conc 3, 72 h): 93.0769 and 97.803
- cell viability relative to control (HCT116 cells; conc 10, 72 h): 99.5045 and 108.03
- cell viability relative to control (HCT116 cells; conc 30, 72 h): 98.1868 and 105.151
- cell viability relative to control (HCT116 cells; conc 100, 72 h): 42.5676 and 63.1319 and 54.6212
- cell viability relative to control (HCT116 cells; conc 300, 72 h): 39.0549 and 40.989
- cell viability relative to control (HCT116 cells; conc 1000, 72 h): 32.8022 and 29.945
- time within which the neddylation of cullin 3 is effectively inhibited (neddylation of cullin 3): ≤ 30 min
- viability at 72 h ([3]; conc 3, 72 h): 106%
- viability at 72 h ([3]; conc 10, 72 h): 98.2%
- viability at 72 h ([3]; conc 30, 72 h): 78.8%
- viability at 72 h ([3]; conc 100, 72 h): 43.4%
- viability at 72 h ([3]; conc 300, 72 h): 25.5%
- viability at 72 h ([3]; conc 1000, 72 h): 13.7%
- EC50 (MDA-MB-231 cells; Homo sapiens, MDA-MB-231, 72 h, cell line assigned from panel order, read-out: EC50, cell growth inhibition): 154 nM
- cell viability relative to control (MDA-MB-231 cells; conc 3, 72 h): 94.1379 and 99.1954
- cell viability relative to control (MDA-MB-231 cells; conc 10, 72 h): 109.785 and 104.516
- cell viability relative to control (MDA-MB-231 cells; conc 30, 72 h): 84.086 and 84.3011
- cell viability relative to control (MDA-MB-231 cells; conc 100, 72 h): 59.6774 and 48.8172
- cell viability relative to control (MDA-MB-231 cells; conc 300, 72 h): 28.4946 and 44.3011
- cell viability relative to control (MDA-MB-231 cells; conc 1000, 72 h): 18.2796 and 26.5591
- viability at 72 h ([4]; conc 10, 72 h): 108%
- viability at 72 h ([4]; conc 30, 72 h): 97.3%
- viability at 72 h ([4]; conc 100, 72 h): 50.8%
- viability at 72 h ([4]; conc 1000, 72 h): 21%
- EC50 (U2OS cells; Homo sapiens, U2OS, 72 h, cell line assigned from panel order, read-out: EC50, cell growth inhibition): 209 nM
- cell viability relative to control (U2OS cells; conc 3, 72 h): 108.902 and 87.9268 and 99.0244
- cell viability relative to control (U2OS cells; conc 10, 72 h): 107.561 and 98.1707
- cell viability relative to control (U2OS cells; conc 30, 72 h): 105.122 and 104.756
- cell viability relative to control (U2OS cells; conc 100, 72 h): 49.6951 and 43.1707
- cell viability relative to control (U2OS cells; conc 300, 72 h): 47.5122 and 35 and 24.2561
- cell viability relative to control (U2OS cells; conc 1000, 72 h): 34.8293 and 26.6585
- inhibition of neddylation of cullin members ([5]; THLE2, Fig. 6b): potently inhibits neddylation of all cullins
- time within which the neddylation of cullin 1 is effectively inhibited ([5]; U2OS, Fig. 6c): ≤ 30 min
